These results are taken from US10947220B2, “Anti-proprotein convertase subtilisin kexin type 9 (anti-PCSK9) compounds and methods of using the same in the treatment and/or prevention of cardiovascular diseases” (Shifa Biomedical Corporation, priority 2016, dated 2021).

pIC50: −log10 of the molar value. Read-outs that look alike come from different tables or passages of the source.

For assay [1], the target named is T1, PCSK9/LDLR interaction (His-tagged PCSK9, recombinant LDLR-AB domain) (Homo sapiens, UniProt Q8NBP7).
T1 construct: purchased Circulex
T1 sequence (Q8NBP7 153-692): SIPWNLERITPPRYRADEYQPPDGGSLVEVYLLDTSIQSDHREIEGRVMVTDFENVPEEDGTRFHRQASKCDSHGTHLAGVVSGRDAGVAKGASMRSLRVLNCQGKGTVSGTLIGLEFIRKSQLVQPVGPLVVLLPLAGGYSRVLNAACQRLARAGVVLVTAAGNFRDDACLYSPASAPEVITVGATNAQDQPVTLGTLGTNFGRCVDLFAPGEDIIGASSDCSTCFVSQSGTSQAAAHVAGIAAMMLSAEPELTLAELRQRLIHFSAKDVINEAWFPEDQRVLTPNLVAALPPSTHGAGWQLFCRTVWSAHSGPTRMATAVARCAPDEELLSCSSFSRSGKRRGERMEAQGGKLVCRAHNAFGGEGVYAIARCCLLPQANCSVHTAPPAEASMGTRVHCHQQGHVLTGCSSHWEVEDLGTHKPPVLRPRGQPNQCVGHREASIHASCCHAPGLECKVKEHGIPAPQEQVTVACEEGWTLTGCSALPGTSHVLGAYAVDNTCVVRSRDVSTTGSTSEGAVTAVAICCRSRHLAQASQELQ
T1 sequence (Q8NBP7 31-152 partner limits assumed): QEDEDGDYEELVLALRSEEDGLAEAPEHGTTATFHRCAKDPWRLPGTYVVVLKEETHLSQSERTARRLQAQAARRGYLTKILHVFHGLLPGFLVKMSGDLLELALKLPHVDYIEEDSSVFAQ
Description: PCSK9/LDLR binding in vitro ELISA (Circulex kit). The procedure: For screening inhibitors of the PCSK9/LDLR interaction, different concentrations (0.01 nM-100 μM) of selected compounds were incubated with His-tagged PCSK9 and then added to wells that were pre-coated with recombinant LDLR-AB domain. After incubation, the plate was washed and the amount of recombinant His-tagged PCSK9 was measured using the biotinylated anti-His-tag and horseradish peroxidase conjugated Streptavidin, and quantitated using a BioTek Synergy 2 plate reader. The effect of each compound on the PCSK9 binding to the recombinant LDLR-AB domain was calculated.
Testing of compounds acquired from commercial sources was performed in our binding assay for their potential to inhibit the PCSK9/LDLR interaction. Initial screening was done using 100 μM of the compounds. Each compound was added to the binding reaction mixture in triplicate and assayed as described above. From the screening, a number of compounds were identified to have an effect on LDLR upregulation as compared to control (see Example 3 vide infra) while having no effect on PCSK9 processing and secretion (see Example 2 vide infra). Exemplary 2-carboxyanilide indoles and 2-carboxanilide pyrroles of the formula I that had >20% inhibition at 100 uM are shown in FIG. 1. Fifty five (55) structurally related 2-carboxyanlide benzofurans (compounds of the formulas II-IV) were also acquired. Compounds that inhibited the PCSK9/LDLR interaction were selected and analyzed using different compound concentrations ranging from 100 μM to 0.01 nM. […] (FIG. 4). Based on this preliminary SAR, an additional 34 compounds were designed and synthesized around SBC-115,337, and the compounds were tested in our binding assay as described in FIG. 4. From the screening, a number of benzofuran compounds were determined to have IC50's>10 uM but less </=50 uM (FIG. 2).
A general note: An ELISA detects its analyte on a solid surface through an enzyme-linked reagent.

A further assay relates to LDLR. The experiment in a line: Recombinant LDLR upregulation in HEK-293 cells transfected with LDLR/PCSK9. It is filed as cell-based, human. To be noted: recombinant LDLR upregulation assay. As to the method: HEK-293T cells were seeded in a DMEM containing 10% Fetal Bovine Serum media and incubated overnight at 37° C. Cells were transiently transfected with LDLR & PCSK9 cDNA constructs using the Lipofectamine-LTX as described above. After 24 hrs, cells were treated with different compounds and incubated for an additional 48 hrs. Cells were assayed as described above for LDLR expression.
HEK-293T cells were assayed as described in relation to FIG. 7.
We have constructed the expression vector of human LDLR under the control of the cytomegalovirus promoter-enhancer (pCMV-LDLR). In addition, a construct containing the PCSK9 (pCMV-PCSK9-FLAG) was described above. These constructs were used to transiently transfect mammalian cells, and both cell lysate and supernatant were subjected to SDS-PAGE and immunoblot analysis using an anti-PCSK9 or LDLR antibody. […] Addition of inhibitors of PCSK9 processing to the latter cells should result in decreased degradation of the LDLR and the appearance of the 160K Dalton band on the gel. Using this assay, we tested our compounds for their ability to reduce the degradation of the LDLR. HEK-293 cells were used in this assay. They were grown in 96-well plates overnight, and transfected with LDLR/PCSK9. Compounds dissolved in DMSO or vehicle were added to the culture media, and incubated for 24-48 hours; cells were lysed. Cell lysates were subjected to quantitation using the above immunoassay.

Assay [2] concerns PCSK9 synthesis, processing and secretion. The experiment in a line: Test for secreted PCSK9 (western blot) in transfected HEK-293T cells. It is filed as cell-based. To be noted: 25 μM, 43 hours; cells and media. The procedure:
HEK-293T cells were seeded into 96 well plates in a DMEM containing 10% Fetal Bovine Serum media and incubated overnight at 37° C. Cells were transiently transfected with cDNA construct using the Lipofectamine-LTX. Compounds (25 μM) or vehicle were added, followed by additional 43 hours of incubation. Cellular PCSK9, secreted PCSK9, and cell viability were analyzed as described in Example 2 below.
The SBC compounds were validated for their ability to affect PCSK9 synthesis, processing and secretion as described in relation to FIG. 5.
The increase in the level of recombinant LDLR in the presence of PCSK9 by the above compounds could be either due to inhibiting the binding of PCSK9 to the LDLR or by inhibiting the processing and secretion of PCSK9. To eliminate the possibility these compounds interfere with PCSK9 synthesis, processing or secretion, we tested the effect of these compounds on the processing and secretion of PCSK9 as described above. HEK-293T cells were seeded into 96-well plates in a DMEM containing 10% Fetal Bovine Serum media and incubated overnight at 37° C. Cells were transiently transfected with cDNA construct using the Lipofectamine-LTX. Compounds (25 μM) or vehicle were added, followed by additional 43 hours of incubation. Cellular PCSK9, secreted PCSK9, and cell viability were analyzed for PCSK9 secretion using western blot analysis, imaged and quantitated using a LAS-4000 (GE).

The next assay concerns HepG2 cells. The experiment in a line: Uptake of fluorescent Dil-LDL in HepG2 cells transfected with PCSK9. It is filed as cell-based. As to conditions: 1.2 uM compound. The procedure: The SBC compounds were validated for their ability to increase uptake of Fluorescent Dil-LDL in HepG2 cells.
The SBC compounds were validated for their ability to increase uptake of Fluorescent Dil-LDL in HepG2 cells as described in FIG. 9.
In order to confirm that these PCSK9 antagonists upregulate functional LDLR, we tested the ability of these compounds to enhance the uptake of fluorescent Dil-LDL in HepG2 cells. Briefly, HepG2 cells transfected with PCSK9 (FIG. 4) were plated and allowed to grow overnight. Compounds were added to the cells followed by the addition of fluorescent Dil-LDL. Cells were washed extensively, and the fluorescent Dil-LDL taken up by the cells were measured using the Synergy 2 plate reader (FIG. 9 and FIG. 12). […] These compounds were selected for further analysis in the in vivo studies.

A further assay relates to plasma LDL-C. Description: Efficacy in mice fed high fat diet (plasma LDL-C). It is filed as in vivo, C57BL/6 mice. As to the method:
C57/Black 6 mice and BalB/C mice were maintained on the HFD for 4 weeks. Blood plasma was collected at day 1 prior to injection of the SBC compounds. Blood plasma was collected at day 4, at 4 hours after the LPS injection, and again at 24 hours after LPS injection. Plasma cholesterol, LDL-C, HDL-C, and triglyceride levels were measured enzymatically.
Blood plasma was collected at day 1 prior to injection of the compounds. Blood plasma was collected again at day 5. Plasma LDL-C levels was measured enzymatically. (FIG. 15A) Representing the actual change in the LDL-C in mg/dL and (FIG. 15B) representing the % reduction of LDL-C after the administration of SBC-115,418 for 5 days.
SBC-115,337 was tested for efficacy in male mice (C57BL/6 mice). Mice were housed as four animals per cage under climate-controlled conditions of temperature (20-24° C.), humidity (60-70%), and alternating 12 h light/dark cycles. […]
Blood samples (75 μl) were collected 4 days after drug administration from the retro-orbital venous plexus via heparinized capillary tubes containing 2 USP units of ammonium heparin per tube (Carolina, Burlington, N.C.). […] Plasma cholesterol, LDL-C, HDL-C, and triglyceride levels were measured enzymatically.
Similarly, SBC-115,418 was tested in mice as described above. […] Plasma LDL-C levels were measured enzymatically. […]

[3] abbreviates: Table 1 / FIG. 11, SAR around SBC-115,337, read-out: IC-50.
Where [4] appears, read: bounds stated for compounds of FIG. 2 and FIG. 3, read-out: in vitro inhibition of the PCSK9/LDLR interaction (IC50).
Where [5] appears, read: compound concentrations 100 μM to 0.01 nM, FIG. 4, read-out: IC50, inhibition of the PCSK9/LDLR interaction.

On to `NC(=O)c1ccc(NC(=O)c2ccc(NC(=O)c3cc4ccccc4o3)cc2)cc1` [SBC-115,424], for which the pIC50 in assay [1] (setting [3]) is 5.77; in assay [1] (setting [4]) it was over 5.00. Moreover, the “level of LDLR as compared to control (DMSO-treated cells)” value (“level of LDLR as compared to control” for short) with LDLR is given as “significant increase in the level of LDLR”. Also, in assay [2], the “effect on PCSK9 synthesis, processing and secretion” value (“effect on PCSK9 synthesis” for short) was “not due to its effect on synthesis and secretion of PCSK9”. For the same compound, the “fluorescent Dil-LDL uptake” value in the assay with HepG2 cells was “significant increases in the Dil-LDL uptake”.

With `COc1cccc2cc(C(=O)Nc3ccc4c(c3)C(=O)N(C)C4=O)oc12` [SBC-115,202], the pIC50 in assay [1] (setting [4]) was over 5.00; in assay [1] (setting [5]), 5.02. For the same compound, in the assay on HepG2 cells, the “fluorescent Dil-LDL uptake” value is on record as “increase in fluorescently labeled LDL uptake”.

As for `CN(C(=O)c1ccc(NC(=O)c2cc3ccccc3o2)cc1)c1ccc(-c2nc3ccccc3o2)cc1` [SBC-115,423], the values for the pIC50 in assay [1] (setting [3]) and in assay [1] (setting [4]) were 5.09 and over 5.00, respectively.

In the case of `O=C(Nc1ccc(-c2nc3ccccc3o2)cc1)c1ccc(NC(=O)c2cc3ccccc3o2)cc1` [SBC-115,337], the figures for the pIC50 in assay [1] (setting [3]), in assay [1] (setting [4]) and in assay [1] (setting [5]) were 6.22, over 5.00 and 6.30, respectively. For the same compound, the “reduction in LDL-C levels relative to high fat diet animal levels” value in the assay with plasma LDL-C (3 mg/kg subcutaneously daily for 4 days, with or without LPS (5 mg/Kg), FIG. 10) was 20-25%. The “fluorescent Dil-LDL uptake” value in the assay with HepG2 cells is reported as “increase in fluorescently labeled LDL uptake”.

As for `COc1ccc2oc(C(=O)Nc3ccc(C(N)=O)cc3)c(C)c2c1` [SBC-115,270], the pIC50 in assay [1] (setting [4]) is over 5.00; in assay [1] (setting [5]), 5.15. In the assay with HepG2 cells, the “fluorescent Dil-LDL uptake” value is given as “increase in fluorescently labeled LDL uptake”.

On to `COc1cccc2c(C)c(C(=O)Nc3ccc(C(=O)Nc4ccc(-c5ncco5)cc4)cc3)oc12` [SBC-115,445], for which the results for the pIC50 in assay [1] (setting [3]) and in assay [1] (setting [4]) were 5.66 and over 5.00, respectively.

`O=C(Nc1ccc(C2=NCCO2)cc1)c1ccc(NC(=O)c2cc3ccccc3o2)cc1` [SBC-115,432]: the pIC50 was 5.96 in assay [1] (setting [3]) and over 5.00 in assay [1] (setting [4]). Further, in the assay with LDLR, the “level of LDLR as compared to control” value is on record as “significant increase in the level of LDLR”. The “effect on PCSK9 synthesis” value in assay [2] was “not due to its effect on synthesis and secretion of PCSK9”. Also, the “fluorescent Dil-LDL uptake” value in the assay on HepG2 cells was “significant increases in the Dil-LDL uptake”.

With `COc1ccc2oc(C(=O)Nc3ccc(C(=O)Nc4ccc(-c5nc6ccccc6o5)cc4)cc3)c(C)c2c1` [SBC-115,418], the pIC50 in assay [1] (setting [3]) is 5.80; in assay [1] (setting [4]) it was over 5.00. Moreover, in the assay on LDLR, the “level of LDLR as compared to control” value is “significant increase in the level of LDLR”. In the assay with plasma LDL-C (10 mg/kg oral daily for 5 days, FIG. 15A-15B), the “reduction in LDL-C levels relative to high fat diet animal levels” value is on record as 20-25%. Further, the “effect on PCSK9 synthesis” value in assay [2] was “not due to its effect on synthesis and secretion of PCSK9”. In addition, the “fluorescent Dil-LDL uptake” value in the assay on HepG2 cells is listed as “significant increases in the Dil-LDL uptake”.

With `O=C(Nc1ccc(-c2ncco2)cc1)c1ccc(NC(=O)c2cc3ccccc3o2)cc1` [SBC-115,433], the pIC50 in assay [1] (setting [3]) was 5.62; in assay [1] (setting [4]), over 5.00. Moreover, the “level of LDLR as compared to control” value in the assay with LDLR is recorded as “significant increase in the level of LDLR”. Moreover, the “effect on PCSK9 synthesis” value in assay [2] is “not due to its effect on synthesis and secretion of PCSK9”. In addition, the “fluorescent Dil-LDL uptake” value in the assay with HepG2 cells is “significant increases in the Dil-LDL uptake”.

Regarding `CN1C(=O)c2ccc(NC(=O)c3cc4ccccc4o3)cc2C1=O` [SBC-115,341], the pIC50 in assay [1] (setting [4]) is over 5.00.
